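These data come from cells grown in 96-well plates and exposed to compound for 48 hours at five concentrations. The concentration for 50% growth inhibition is given as GI50.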 The source made the active and inactive calls. Cut-off read from the data, not from the text of the source: active = GI50 up to about 1.1 µM and inactive = higher. *1 amine or outer side, *2 acyl side, *3 side chain or, on linkers, in order; H or OH if unused. Where a SMILES comes first, the peptide text is derived from it. The star is where a group is joined. γGlu = O=C(O)[CH](CCC(=O)[*:2])N[*:1]; NHOH = ON*
Tests used:
Assay in all cases: NCI tumour cell line growth inhibition, 48 h
SR = tested on: SR
SF-268 = tested on: SF-268
IGROV-1 = tested on: IGROV-1
SK-OV-3 = tested on: SK-OV-3
KM12 = tested on: KM12
UO-31 = tested on: UO-31
SK-MEL-2 = tested on: SK-MEL-2
UACC-257 = tested on: UACC-257
RXF 393 = tested on: RXF 393
SF-539 = tested on: SF-539
HCT-116 = tested on: HCT-116
COLO 205 = tested on: COLO 205
NCI-H460 = tested on: NCI-H460
RPMI-8226 = tested on: RPMI-8226
SW-620 = tested on: SW-620
SNB-19 = tested on: SNB-19
SN12C = tested on: SN12C
NCI-H23 = tested on: NCI-H23
Malme-3M = tested on: Malme-3M
T47D = tested on: T47D

Compound | GI50 (SR) | GI50 (SF-268) | GI50 (IGROV-1) | GI50 (SK-OV-3) | GI50 (KM12) | GI50 (UO-31) | GI50 (SK-MEL-2) | GI50 (UACC-257) | GI50 (RXF 393) | GI50 (SF-539) | GI50 (HCT-116) | GI50 (COLO 205) | GI50 (NCI-H460) | GI50 (RPMI-8226) | GI50 (SW-620) | GI50 (SNB-19) | GI50 (SN12C) | GI50 (NCI-H23) | GI50 (Malme-3M) | GI50 (T47D)
CCCCCCCCCCCCC(=O)CCCCC(=O)O | 19.5 µM (inactive) | 31.6 µM (inactive) | 17.3 µM (inactive) | 68.2 µM (inactive) | 15.8 µM (inactive) | 23.9 µM (inactive) | 20.7 µM (inactive) | 38 µM (inactive) | 34.9 µM (inactive) | 17.5 µM (inactive) | 20.6 µM (inactive) | 16.7 µM (inactive) | 19.4 µM (inactive) | 16.7 µM (inactive) | 30.3 µM (inactive) | 54.7 µM (inactive) | 24 µM (inactive) | 35.2 µM (inactive) | 21.6 µM (inactive) | 
Nc1nc(O)c2c(n1)NCN(c1ccc(S(N)(=O)=O)cc1)C2 | > 100 µM (inactive) | > 100 µM (inactive) | > 100 µM (inactive) |  | > 100 µM (inactive) | > 100 µM (inactive) | > 100 µM (inactive) | > 100 µM (inactive) |  |  | > 100 µM (inactive) | > 100 µM (inactive) | > 100 µM (inactive) | > 100 µM (inactive) | > 100 µM (inactive) | > 100 µM (inactive) | > 100 µM (inactive) |  | > 100 µM (inactive) | > 100 µM (inactive)
C=CC[C@@]1(C(=O)OC)[C@H](Sc2ccccc2)C1(C)C |  | 85.5 µM (inactive) | 26.9 µM (inactive) | > 100 µM (inactive) | 35.1 µM (inactive) | 83 µM (inactive) | 24.2 µM (inactive) | 34 µM (inactive) |  | 35.3 µM (inactive) | 23.6 µM (inactive) | 33.3 µM (inactive) | 66.5 µM (inactive) | 10.7 µM (inactive) | 61.4 µM (inactive) | > 100 µM (inactive) | 21.1 µM (inactive) | 23.2 µM (inactive) | 29.4 µM (inactive) | > 100 µM (inactive)
COC(=O)c1c(C(=O)OC)c2ccc(-c3ccc(Cl)cc3)nn2c1C(=O)c1ccc([N+](=O)[O-])cc1 |  | 44.7 µM (inactive) |  | > 100 µM (inactive) | > 100 µM (inactive) | 32.1 µM (inactive) | 34.8 µM (inactive) | > 100 µM (inactive) | 8.83 µM (inactive) | 44.4 µM (inactive) | 27.2 µM (inactive) | 27.3 µM (inactive) | > 100 µM (inactive) | 16.7 µM (inactive) | 41.5 µM (inactive) | > 100 µM (inactive) | > 100 µM (inactive) | > 100 µM (inactive) |  | 27.9 µM (inactive)
COc1ccc(-c2onc(-c3c(C)cc(C)cc3C)c2C2=NCCN2)cc1 | 32.2 µM (inactive) | 36.7 µM (inactive) | > 100 µM (inactive) | 14.2 µM (inactive) | 44.5 µM (inactive) | 17.1 µM (inactive) | 48.2 µM (inactive) | 18.7 µM (inactive) | 39.2 µM (inactive) | 20 µM (inactive) | 20.4 µM (inactive) | 20.4 µM (inactive) | 28.8 µM (inactive) | 29 µM (inactive) | 47.2 µM (inactive) | 33.9 µM (inactive) | 48.6 µM (inactive) | > 100 µM (inactive) | 33.3 µM (inactive) | 
COc1cc2c3c(c1OC)Oc1ccc(cc1)CC1c4c(cc(OC)c(OC)c4Oc4ccc(cc4)CC3N(C)CC2)CCN1C (stereo unspecified) | 2.88 µM (inactive) | 27 µM (inactive) | 13.4 µM (inactive) | 28.2 µM (inactive) | 34.4 µM (inactive) | 15 µM (inactive) | 32.3 µM (inactive) | 13.8 µM (inactive) | 12.9 µM (inactive) | 14.5 µM (inactive) | 13.8 µM (inactive) | 13.5 µM (inactive) | 18.7 µM (inactive) | 25.6 µM (inactive) | 15.1 µM (inactive) | 33 µM (inactive) | 19 µM (inactive) | 57.9 µM (inactive) | 20.3 µM (inactive) | 
Cc1c(C)c(S(=O)(=O)N(CCCCN)OCCCN)c(C)c2c1OC(C)(C)CC2 | 42.7 µM (inactive) | 15.4 µM (inactive) | 4.51 µM (inactive) | 15.6 µM (inactive) | 17.1 µM (inactive) | 19.4 µM (inactive) | 11.1 µM (inactive) | 22.2 µM (inactive) |  | 24 µM (inactive) | 16.6 µM (inactive) | 31.2 µM (inactive) | 12.9 µM (inactive) | 23.3 µM (inactive) | 31.8 µM (inactive) | 15.1 µM (inactive) | 29.6 µM (inactive) | 16.4 µM (inactive) |  | 23.7 µM (inactive)
O=C1/C(=C/c2ccc(Cl)cc2)CCC/C1=C\c1ccc(O)c(CN2CCCCC2)c1 | 3.78 µM (inactive) |  | 15.5 µM (inactive) | 24 µM (inactive) | 4.51 µM (inactive) | 16.3 µM (inactive) | 42.1 µM (inactive) | 17.8 µM (inactive) |  | 21.8 µM (inactive) | 8.57 µM (inactive) | 20.3 µM (inactive) | 19.5 µM (inactive) |  | 18 µM (inactive) | 33 µM (inactive) | 26.6 µM (inactive) | 19.1 µM (inactive) | 21.4 µM (inactive) | 19.5 µM (inactive)
O=P1(O)C=CC2(CCCC2)O1 | > 100 µM (inactive) | > 100 µM (inactive) | > 100 µM (inactive) | > 100 µM (inactive) | > 100 µM (inactive) |  | > 100 µM (inactive) | > 100 µM (inactive) |  | > 100 µM (inactive) | > 100 µM (inactive) | > 100 µM (inactive) | > 100 µM (inactive) |  | > 100 µM (inactive) | > 100 µM (inactive) | > 100 µM (inactive) | > 100 µM (inactive) | > 100 µM (inactive) | > 100 µM (inactive)
COc1ccc(C(=O)CCN(C)C)c2ccccc12 |  | 21.9 µM (inactive) | 19.4 µM (inactive) | > 100 µM (inactive) | 19.5 µM (inactive) | 21.5 µM (inactive) | 19.5 µM (inactive) | > 40.9 µM (inactive) | 21.3 µM (inactive) | 14.9 µM (inactive) | 21.8 µM (inactive) | 18.6 µM (inactive) | > 59.8 µM (inactive) | 0.504 µM (active) | 18 µM (inactive) | > 93.5 µM (inactive) | 21.5 µM (inactive) | 20.8 µM (inactive) | 17.8 µM (inactive) | 11.3 µM (inactive)
C/C=C(\C)[C@@H](O)C(=O)O[C@@H]1CC(C(C)(C)O)[C@](C)(CCC(=O)OC)[C@H]2[C@H](OC(=O)[C@H](O)[C@H](C)CC)C[C@]3(C)C(=CC[C@H]3[C@H]3CO[C@H](C=C(C)C)C3)[C@]12C (stereo partly specified) | 14.5 µM (inactive) | 18.5 µM (inactive) | 30.8 µM (inactive) |  | 24.8 µM (inactive) | 17.7 µM (inactive) | 17.6 µM (inactive) | 20.7 µM (inactive) | 16.4 µM (inactive) | 20.5 µM (inactive) | 18 µM (inactive) |  | 18.5 µM (inactive) | 15.3 µM (inactive) | 22.7 µM (inactive) |  |  | 18.4 µM (inactive) |  | 25.7 µM (inactive)
CC(=O)OCC1OC(OC2CC3C(C)(C)C(OC(C)=O)CC[C@]3(C)C3CCC45CC4(CCC5[C@@H](C)C[C@H](O)C(O)C(C)(C)O)[C@]23C)C(O)C(O)C1O (stereo partly specified) |  | > 10 µM (inactive) | > 10 µM (inactive) | > 10 µM (inactive) | > 10 µM (inactive) | > 10 µM (inactive) | 5.65 µM (inactive) | > 10 µM (inactive) | > 10 µM (inactive) | > 10 µM (inactive) | > 10 µM (inactive) | > 10 µM (inactive) | > 10 µM (inactive) | 5.18 µM (inactive) | > 10 µM (inactive) | > 10 µM (inactive) | > 10 µM (inactive) | > 10 µM (inactive) | > 10 µM (inactive) | > 10 µM (inactive)
COc1ccc2oc(S(=O)(=O)N3CC(CCl)c4ccc(N)cc43)cc2c1 (stereo unspecified) | < 0.01 µM (active) | 2.01 µM (inactive) | 0.0445 µM (active) | 0.108 µM (active) | 0.0228 µM (active) | 1.93 µM (inactive) | < 0.0443 µM (active) | 0.766 µM (active) |  | 0.0244 µM (active) | 0.0419 µM (active) | 2.11 µM (inactive) | 0.0255 µM (active) | 0.0482 µM (active) | 0.0395 µM (active) | 0.0608 µM (active) | 0.119 µM (active) | 0.401 µM (active) | 0.043 µM (active) | > 100 µM (inactive)
NC(CCC(=O)NC(CCC(=O)NO)C(=O)NCC(=O)O)C(=O)O (stereo unspecified) (γGlu-Glu(NHOH)-Gly-OH; configuration not given here) |  | > 100 µM (inactive) | > 100 µM (inactive) | > 100 µM (inactive) | > 100 µM (inactive) | > 100 µM (inactive) | > 100 µM (inactive) | > 100 µM (inactive) | > 100 µM (inactive) | > 100 µM (inactive) | > 100 µM (inactive) | > 100 µM (inactive) | > 100 µM (inactive) | > 100 µM (inactive) | > 100 µM (inactive) | > 100 µM (inactive) | > 100 µM (inactive) | > 100 µM (inactive) |  | > 100 µM (inactive)
COc1cc(O)c2c(=O)c(O)c(-c3ccc(O)c(OC)c3)oc2c1 [RHAMNAZIN] |  | 1.89 µM (inactive) | > 100 µM (inactive) |  | 3.47 µM (inactive) |  | > 100 µM (inactive) | > 100 µM (inactive) |  | 3.7 µM (inactive) | 5.15 µM (inactive) | 33.7 µM (inactive) | 2.64 µM (inactive) | 5.98 µM (inactive) | 18.5 µM (inactive) | 3.83 µM (inactive) | > 100 µM (inactive) | > 26.5 µM (inactive) | > 100 µM (inactive) | > 100 µM (inactive)
